In ChEMBL document CHEMBL1201862, “PubChem BioAssay data set” (2004):
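Tested at 5 concentrations; 48 h exposure; 96-well plates; endpoints linearly interpolated, else capped at highest concentration. GI50 is the concentration that inhibits growth by half.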 Calls of active or inactive are those of the source. No stated cut-off is given here; in the data, active = GI50 up to about 1.1 µM and inactive = higher.

Experiments:
Assay in all cases: growth of human tumour cells (NCI), 48 h
HCT-116 = system: HCT-116
OVCAR-8 = system: OVCAR-8
SR = system: SR
SNB-78 = system: SNB-78
HOP-92 = system: HOP-92
786-0 = system: 786-0
COLO 205 = system: COLO 205
OVCAR-4 = system: OVCAR-4
SF-539 = system: SF-539
U-251 = system: U-251
KM12 = system: KM12
OVCAR-5 = system: OVCAR-5
RXF 393 = system: RXF 393
CCRF-CEM = system: CCRF-CEM
RPMI-8226 = system: RPMI-8226

SMILES	GI50 (HCT-116)	GI50 (OVCAR-8)	GI50 (SR)	GI50 (SNB-78)	GI50 (HOP-92)	GI50 (786-0)	GI50 (COLO 205)	GI50 (OVCAR-4)	GI50 (SF-539)	GI50 (U-251)	GI50 (KM12)	GI50 (OVCAR-5)	GI50 (RXF 393)	GI50 (CCRF-CEM)	GI50 (RPMI-8226)
CN(C)CCNC(=O)c1cccc2cc3ccc4ccccc4c3nc12	0.0294 µM (active)	0.0594 µM (active)	0.0246 µM (active)	0.182 µM (active)	0.143 µM (active)	0.0824 µM (active)	0.0414 µM (active)	0.115 µM (active)	0.0811 µM (active)	0.0755 µM (active)	0.148 µM (active)	0.214 µM (active)	0.111 µM (active)	0.0406 µM (active)	0.145 µM (active)
COCCOCC(=O)N(CCn1ccc(NC(c2ccccc2)(c2ccccc2)c2ccccc2)nc1=O)CCn1cnc2nc(N)[nH]c(=O)c21	> 100 µM (inactive)	> 100 µM (inactive)	> 100 µM (inactive)	> 100 µM (inactive)	> 100 µM (inactive)	> 100 µM (inactive)	> 100 µM (inactive)	> 100 µM (inactive)	> 100 µM (inactive)	> 100 µM (inactive)	> 100 µM (inactive)	> 100 µM (inactive)	> 100 µM (inactive)	> 100 µM (inactive)	> 100 µM (inactive)
Cc1ccc(/C=N/NS(=O)(=O)c2ccccc2)cc1	> 100 µM (inactive)	> 100 µM (inactive)	> 100 µM (inactive)	> 100 µM (inactive)	> 100 µM (inactive)	> 100 µM (inactive)	> 100 µM (inactive)	> 100 µM (inactive)	> 100 µM (inactive)	> 100 µM (inactive)	> 100 µM (inactive)	> 100 µM (inactive)	> 100 µM (inactive)	> 100 µM (inactive)	> 100 µM (inactive)
C=C1C(=O)OC2C=C(CCC(C)=O)C(C)C(OC(C)=O)CC12 (configuration not stated)	5.19 µM (inactive)	16.5 µM (inactive)	11.8 µM (inactive)	7.94 µM (inactive)	3.99 µM (inactive)	9.68 µM (inactive)		13.1 µM (inactive)	15.2 µM (inactive)	17.1 µM (inactive)	16.1 µM (inactive)	16.1 µM (inactive)	2.41 µM (inactive)	2.6 µM (inactive)	4.52 µM (inactive)
COC1OC(C)C2OC(C)(C)OC2C1OC(C)=O (configuration not stated)	> 100 µM (inactive)	> 100 µM (inactive)	> 100 µM (inactive)	> 100 µM (inactive)	> 100 µM (inactive)	> 100 µM (inactive)	> 100 µM (inactive)	> 100 µM (inactive)	> 100 µM (inactive)	> 100 µM (inactive)	> 100 µM (inactive)	> 100 µM (inactive)	39.7 µM (inactive)	> 100 µM (inactive)	> 100 µM (inactive)
CC1(C)C(O)C[C@@H](O)[C@@]2(C)C1CC[C@]1(C)C2C[C@@H](O)[C@@H]2C([C@@]3(C)CC[C@@H](C(C)(C)O)O3)CCC21C (some centres not stated)	17 µM (inactive)	18.7 µM (inactive)	8.83 µM (inactive)	21.3 µM (inactive)	9.68 µM (inactive)	15.3 µM (inactive)	16.4 µM (inactive)	22.4 µM (inactive)	14.2 µM (inactive)	12.9 µM (inactive)	15.9 µM (inactive)	16.1 µM (inactive)	13.4 µM (inactive)	17.8 µM (inactive)	16.7 µM (inactive)
COc1ccc(C(c2ccc(C(C)C)cc(OC)c2=O)c2ccc(C(C)C)cc(OC)c2=O)cc1	11.1 µM (inactive)	16.6 µM (inactive)	10.4 µM (inactive)	13.2 µM (inactive)	13.6 µM (inactive)	16.6 µM (inactive)	17.2 µM (inactive)	12.2 µM (inactive)	17 µM (inactive)	13.7 µM (inactive)	13.5 µM (inactive)	20.1 µM (inactive)	4.15 µM (inactive)	10.2 µM (inactive)	5.06 µM (inactive)
O=C(CC1(O)C(=O)Nc2c(Cl)cc(Cl)cc21)c1ccc(F)cc1 (configuration not stated)	35.4 µM (inactive)	21.2 µM (inactive)	29.2 µM (inactive)	83.9 µM (inactive)	47.1 µM (inactive)	19.8 µM (inactive)	19 µM (inactive)	27.8 µM (inactive)	28.4 µM (inactive)	31.3 µM (inactive)	37.2 µM (inactive)	64.7 µM (inactive)	27 µM (inactive)		24.9 µM (inactive)
Cc1ccc(S(=O)(=O)N/N=C(\c2nc3ccc([N+](=O)[O-])cc3nc2O)C(O)c2ccccc2Cl)cc1 (configuration not stated)	> 100 µM (inactive)	> 100 µM (inactive)	> 100 µM (inactive)	> 100 µM (inactive)	> 100 µM (inactive)	> 100 µM (inactive)	> 100 µM (inactive)	> 100 µM (inactive)	> 100 µM (inactive)	> 100 µM (inactive)	93.8 µM (inactive)	> 100 µM (inactive)		17.5 µM (inactive)	61.1 µM (inactive)
